In patent publication US10493070B2 (priority 2016, dated 2019):
pEC50: −log10 of the molar value.

tested on: recombinant NL4-3 virus (NLRluc, Renilla luciferase in nef, Gag P373S); test: HIV cell culture assay (Renilla luciferase reporter virus in MT-2 cells); format: cell-based; conditions: Renilla, NL43, read-out: 10% FBS EC50, 10% FBS, class symbols A/B/C
Procedure: MT-2 cells and 293T cells were obtained from the NIH AIDS Research and Reference Reagent Program. MT-2 cells were propagated in RPMI 1640 media supplemented with 10% heat inactivated fetal bovine serum, […]. The 293T cells were propagated in DMEM media supplemented with 10% heat inactivated fetal bovine serum (FBS), 100 units/ml penicillin G and 100 μg/ml streptomycin. The proviral DNA clone of NL4-3 was obtained from the NIH AIDS Research and Reference Reagent Program. A recombinant NL4-3 virus, in which a section of the nef gene from NL4-3 was replaced with the Renilla luciferase gene, was used as a reference virus. In addition, residue Gag P373 was converted to P373S. Briefly, the recombinant virus was prepared by transfection of the altered proviral clone of NL4-3. Transfections were performed in 293T cells using LipofectAMINE PLUS from Invitrogen (Carlsbad, Calif.), according to manufacturer's instruction. The virus was titered in MT-2 cells using luciferase enzyme activity as a marker. Luciferase was quantitated using the Dual Luciferase kit from Promega (Madison, Wis.), with modifications to the manufacturer's protocol. The diluted Passive Lysis solution was pre-mixed with the re-suspended Luciferase Assay Reagent and the re-suspended Stop & Glo Substrate (2:1:1 ratio). Fifty (50) μL of the mixture was added to each aspirated well on assay plates and luciferase activity was measured immediately on a Wallac TriLux (Perkin-Elmer). Antiviral activities of inhibitors toward the recombinant virus were quantified by measuring luciferase activity in cells infected for 4-5 days with NLRluc recombinants in the presence serial dilutions of the inhibitor. Table 16 is the key for the data in Table 17.

Compound	pEC50
CC1(C)C(c2ccc(C(=O)O)cc2)=CC[C@]2(C)CN(C(=O)c3ccccc3C(=O)O)CC=C12 [Example 14]	< 5.52
CC1(C)C(c2ccc(C(=O)O)cc2)=CC[C@]2(C)CN(C(=O)[C@H]3C[C@@H]4C=C[C@H]3C4)CC=C12 [Example A86]	< 5.52
CC1(C)C(c2ccc(C(=O)O)cc2)=CC[C@]2(C)CN(C(=O)c3ccccc3-c3nc4cc(C(=O)O)ccc4n3Cc3ccccc3)CC=C12 [Example A290]	< 5.52
CC1(C)C(c2ccc(C(=O)O)cc2)=CC[C@]2(C)CN(C(=O)c3ccccc3-c3nc4cc(C(=O)O)ccc4n3Cc3cccnc3)CC=C12 [Example A293]	< 5.52
CC1(C)C(c2ccc(C(=O)O)cc2)=CC[C@]2(C)CN(c3ccc(C(=O)O)cc3)CC=C12 [Example B10, (S)-4,4′-(5,5,8a-trimethyl-3,5,8,8a-tetrahydroisoquinoline-2,6(1H)-diyl)dibenzoic acid]	< 5.52
CC1(C)C(c2ccc(C(=O)O)cc2)=CC[C@]2(C)CN(c3ncccn3)CC=C12 [Example B11]	< 5.52
CC(C)S(=O)(=O)N1CCC(C(=O)N2CC=C3C(C)(C)C(c4ccc(C(=O)O)cc4)=CC[C@]3(C)C2)(c2ccccc2)CC1 [Example A195]	> 6.30
CN1CCC2C(C)(C)[C@@H](c3ccc(C(=O)O)cc3)CC[C@]2(C)C1 (single isomer, unassigned) [Example 91]	< 5.52
CC1(C)C(c2ccc(C(=O)O)cc2)=CC[C@]2(C)CN(C(=O)c3ccc(CN4CCS(=O)(=O)CC4)cc3)CC=C12 [Example 31]	< 5.52
CC1(C)C(c2ccc(C(=O)O)cc2)=CC[C@]2(C)CN(C(=O)c3ccccc3-c3nc4c(F)cccc4[nH]3)CC=C12 [Example A266]	> 6.30
CC1(C)C(c2ccc(C(=O)O)cc2)=CC[C@]2(C)CN(C(=O)c3ccccc3-c3nc4c([N+](=O)[O-])cccc4[nH]3)CC=C12 [Example A272]	> 6.30
CN(C)c1ccc(C(=O)N2CC=C3C(C)(C)C(c4ccc(C(=O)O)cc4)=CC[C@]3(C)C2)cc1 [Example 25]	< 5.52
CC1(C)C(c2ccc(C(=O)O)cc2)=CC[C@]2(C)CN(C(=O)c3ccccc3-c3nc4cc(Cl)ccc4o3)CC=C12 [Example A332]	> 6.30
CC1(C)C(c2ccc(C(=O)O)cc2)=CC[C@@]2(C)CN(C(=O)c3ccccc3-c3nc4c(ccc5ccccc54)o3)CC=C12 [Example A324]	> 6.30
CC1(C)C(c2ccc(C(=O)O)cc2)=CC[C@]2(C)CN(C(=O)c3ccccc3-c3nc4cc(F)c(F)cc4o3)CC=C12 [Example A338]	5.52 to 6.30
Cc1nc2cc(C(=O)N3CC=C4C(C)(C)C(c5ccc(C(=O)O)cc5)=CC[C@]4(C)C3)ccc2[nH]1 [Example 41]	< 5.52
CN1CCN(c2cccc(C(=O)N3CC=C4C(C)(C)C(c5ccc(C(=O)O)cc5)=CC[C@]4(C)C3)c2)CC1 [Example 29]	< 5.52
CC1(C)C(c2ccc(C(=O)O)cc2)=CC[C@]2(C)CN(C(=O)c3cccc(C(=O)NCCCN4CCS(=O)(=O)CC4)c3)CC=C12 [Example 66]	< 5.52
CC1(C)C(c2ccc(C(=O)O)cc2)=CC[C@]2(C)CN(C(=O)C3(c4ccccc4F)CCCC3)CC=C12 [Example A1]	< 5.52
CC1(C)C(c2ccc(C(=O)O)cc2)=CC[C@]2(C)CN(C(=O)C3(c4ccc(F)cc4)CCCC3)CC=C12 [Example A111]	< 5.52
CN1CCC2C(C)(C)[C@H](c3ccc(C(=O)O)cc3)CC[C@]2(C)C1 (single isomer, unassigned) [Example 90]	< 5.52
CC1(C)C(c2ccc(C(=O)O)cc2)=CC[C@]2(C)CN(C(=O)c3cccc(C(=O)NCCCN4CCS(=O)(=O)CC4)n3)CC=C12 [Example 70]	< 5.52
CC(C)(C)OC(=O)N[C@H]1CC[C@@H](C(=O)N2CC=C3C(C)(C)C(c4ccc(C(=O)O)cc4)=CC[C@]3(C)C2)CC1 [Example 16]	< 5.52
CC1(C)C(c2ccc(C(=O)O)cc2)=CC[C@]2(C)CN(C(=O)c3ccccc3-c3nc4cc(F)c(F)cc4[nH]3)CC=C12 [Example A267]	5.52 to 6.30
CCn1c(-c2ccccc2C(=O)N2CC=C3C(C)(C)C(c4ccc(C(=O)O)cc4)=CC[C@]3(C)C2)nc2cc(S(C)(=O)=O)ccc21 [Example A286]	< 5.52
CC1(C)C(c2ccc(C(=O)O)cc2)=CC[C@]2(C)CN(C(=O)c3cccc(C(=O)O)c3)CC=C12 [Example 12]	< 5.52
CC(C)(C)OC(=O)N1CCCCC1CCC(=O)N1CCC(C(=O)N2CC=C3C(C)(C)C(c4ccc(C(=O)O)cc4)=CC[C@]3(C)C2)(c2ccccc2)CC1 (stereo partly drawn) [Example A168]	> 6.30
CC1(C)C(c2ccc(C(=O)O)cc2)=CC[C@]2(C)CN(C(=O)c3cncc(C(=O)N4CC=C5C(C)(C)C(c6ccc(C(=O)O)cc6)=CC[C@]5(C)C4)c3)CC=C12 [Example 63]	< 5.52
CN(C)CC(=O)N1CC=C2C(C)(C)C(c3ccc(C(=O)O)cc3)=CC[C@]2(C)C1 [Example 35]	< 5.52

same assay, conditions: Renilla, NL43, read-out: 10% FBS EC50, 10% FBS, numeric values

Compound	pEC50
CC(C)(C)OC(=O)N1CSC[C@@H]1C(=O)N1CCC(C(=O)N2CC=C3C(C)(C)C(c4ccc(C(=O)O)cc4)=CC[C@]3(C)C2)(c2ccccc2)CC1 [Example A204]	6.51
CC1(C)C(c2ccc(C(=O)O)cc2)=CC[C@]2(C)CN(C(=O)c3ccccc3-c3nc4c(Cl)cccc4[nH]3)CC=C12 [Example A270]	7.85
CC1(C)C(c2ccc(C(=O)O)cc2)=CC[C@]2(C)CN(c3cc(-c4nnn(CCN5CCS(=O)(=O)CC5)n4)cc([N+](=O)[O-])c3)CC=C12 [Example B1, (S)-4-(2-(3-(2-(2-(1,1-dioxidothiomorpholino)ethyl)-2H-tetrazol-5-yl)-5-nitrophenyl)-5,5,8a-trimethyl-1,2,3,5,8,8a-hexahydroisoquinolin-6-yl)benzoic acid]	7.62
CC1(C)C(c2ccc(C(=O)O)cc2)=CC[C@]2(C)CN(C(=O)C3(c4ccccc4)CCN(S(=O)(=O)CCCCl)CC3)CC=C12 [Example A197]	6.83
CC(C)C[C@H](NC(=O)OC(C)(C)C)C(=O)N1CCC(C(=O)N2CC=C3C(C)(C)[C@@H](c4ccc(C(=O)O)cc4)CC[C@]3(C)C2)(c2ccccc2)CC1 [Example 89]	7.17
COc1ccnc(N2CC=C3C(C)(C)C(c4ccc(C(=O)O)cc4)=CC[C@]3(C)C2)n1 [Example B13]	5.57
CC1(C)C(c2ccc(C(=O)O)cc2)=CC[C@]2(C)CN(C(=O)C3C4CCC(C4)C3C(=O)N3CC=C4C(C)(C)C(c5ccc(C(=O)O)cc5)=CC[C@]4(C)C3)CC=C12 (stereo partly drawn) [Example 65]	5.55
CC1(C)C(c2ccc(C(=O)O)cc2)=CC[C@]2(C)CN(c3nc4ccccc4s3)CC=C12 [Example 80]	6.75
CC1(C)C(c2ccc(C(=O)O)cc2)=CC[C@]2(C)CN(C3CCC(CN(CCN4CCS(=O)(=O)CC4)CCN4CCS(=O)(=O)CC4)(c4ccccc4)CC3)CC=C12 (stereo partly drawn) [Example C4, (S)-4-(2-(4-((bis(2-(1,1-dioxidothiomorpholino)ethyl)amino)methyl)-4-phenylcyclohexyl)-5,5,8a-trimethyl-1,2,3,5,8,8a-hexahydroisoquinolin-6-yl)benzoic acid]	< 5.52
CC1(C)C(c2ccc(C(=O)O)cc2)=CC[C@]2(C)CN(C(=O)c3ccccc3-c3nc4cc(Cl)c(Cl)cc4n3CCc3ccccc3)CC=C12 [Example A277]	5.65
CC(C)[C@H]1CC[C@H](C)C[C@@H]1OC(=O)c1ccccc1C(=O)N1CC=C2C(C)(C)C(c3ccc(C(=O)O)cc3)=CC[C@]2(C)C1 [Example A36]	6.42
CC1(C)C(c2ccc(C(=O)O)cc2)=CC[C@]2(C)CN(C(=O)c3ccccc3-c3nc4cc([N+](=O)[O-])ccc4[nH]3)CC=C12 [Example A273]	7.20
CC(C)(C)OC(=O)N1CCC(C(=O)N2CC=C3C(C)(C)C(c4ccc(C(=O)O)cc4)=CC[C@]3(C)C2)(c2ccccc2)CC1 [Example 46]	6.60
CC1(C)C(c2ccc(C(=O)O)cc2)=CC[C@]2(C)CN(C(=O)C3(c4ccccc4)CCN(C(=O)CCN4CCS(=O)(=O)CC4)CC3)CC=C12 [Example 95]	5.57
CC1(C)C(c2ccc(C(=O)O)cc2)=CC[C@]2(C)CN(c3cc(-c4nnnn4CCN4CCS(=O)(=O)CC4)cc([N+](=O)[O-])c3)CC=C12 [Example B2, (S)-4-(2-(3-(1-(2-(1,1-dioxidothiomorpholino)ethyl)-1H-tetrazol-5-yl)-5-nitrophenyl)-5,5,8a-trimethyl-1,2,3,5,8,8a-hexahydroisoquinolin-6-yl)benzoic acid]	6.12
COc1cccc2oc(-c3ccccc3C(=O)N3CC=C4C(C)(C)C(c5ccc(C(=O)O)cc5)=CC[C@]4(C)C3)nc12 [Example A311]	6.66
CC(C)C[C@H](NC(=O)OC(C)(C)C)C(=O)N1CCC(C(=O)N2CC[C@H]3C(C)(C)[C@@H](c4ccc(C(=O)O)cc4)CC[C@]3(C)C2)(c2ccccc2)CC1 [Example 87]	7.00
CC1(C)C(c2ccc(C(=O)O)cc2)=CC[C@]2(C)CN(C(=O)c3ccccc3-c3nc4cc5c(cc4[nH]3)OCO5)CC=C12 [Example A298]	7.22
CC1(C)C(c2ccc(C(=O)O)cc2)=CC[C@]2(C)CN(C(=O)c3ccc4cc[nH]c4c3)CC=C12 [Example 39]	5.83
